Assay results from US20170055529A1, “BROAD SPECTRUM WEED CONTROL IN FLOODED RICE BY IN-WATER APPLICATION OF AUXIN HERBICIDES” (priority 2015, published 2017).

What was measured:
Type in all cases: in vivo
[1] = tested on: CYPDI = Cyperus difformis (small-flower flatsedge); assay: Greenhouse in-water herbicidal activity (large pots); conditions: for Percent (%) Visual Injury Ratings - 16 DAA, CYPDI / Percent (%) Visual Injury Ratings - 22 DAA, CYPDI: greenhouse large pots
Method: (§1) Weed seeds or nutlets of the desired test plant species were planted in puddled soil (mud) prepared by mixing shredded topsoil and deionized (DI) water in a 1:1 ratio in a standard cement mixer. […] Osmocote® (17:6:10 N:P:K; 0.5 teaspoon) was added to the bottom of a container. The container is a high-density polyethylene (HDPE) round container (4.163 L (1.1 gallon), 15 cm high×20.55 cm diameter; for treatment purposes, the surface area is calculated as 331 cm^2 with 1 hectare equivalent to 10^8 cm^2). The mud mixture (2,750 mL) was added to the container filling it half full. Stakes were placed horizontally in each container to create separate areas for which to plant each different plant species. Water was added on a regular basis to maintain the paddy flood, and supplemental lighting was provided with overhead metal halide 1000-Watt lamps as necessary.
(§2) Once the plants had reached the proper size (the growth stage of the various species ranged from 2 to 4 leaves), the containers were flooded with city water to a depth of 3 cm submerging the plants 80-100%. The outside of each container was measured and marked at a 3-cm line with a black permanent marker to eliminate water level variability during the trial period. Water was added daily to maintain this water depth. Triclopyr triethylammonium (as Garlon® 3 A, 360 g ae/L); triclopyr butoxyethyl ester (as Garlon® 4, 480 g ae/L); fluroxypyr methylheptyl ester (meptyl or MHE, as Starane® Ultra, 333 g ae/L); fluroxypyr acid (850 grams acid equivalent per kilogram (g ae/kg)); 2,4-dichlorophenoxyacetic acid dimethylammonium (2,4-D DMA, as Weedar® 64 EC, 456 g ae/L); 2,4-dichlorophenoxyacetic acid 2-ethylhexyl ester (2,4-D 2-EHE, as Agri Star®, 456 g ae/L); clopyralid olamine (as Stinger®, 360 g ae/L); and penoxsulam (as Grasp® SC, 240 g ai/L) were used. Each herbicide treatment for each pot was mixed in water (80 mL) and applied directly into the paddy water at rates adjusted to the surface area. The dry formulations were pre-weighed based on the rate of the active ingredient to be applied on a per unit area basis, placed in 30 mL vials, and capped. Granules were spread onto the top of the water in each pot and dispersed throughout the water. Treatments were replicated 3 times.
(§3) The treated plants and control plants were placed in a greenhouse as described above and water was added as needed to maintain a flood depth of 3 cm. […]

[2] = tested on: MOOVA = Monochoria vaginalis (monochoria); assay: as above; conditions: for Percent (%) Visual Injury Ratings - 16 DAA, MOOVA / Percent (%) Visual Injury Ratings - 22 DAA, MOOVA: greenhouse large pots
Method: as §1, §2, §3

[3] = tested on: CYDPI = Cyperus difformis (small-flower flatsedge); assay: Greenhouse in-water herbicidal activity (small pots)
Text: (§4) Weed seeds of the desired test plant species were planted in puddled soil (mud) prepared by mixing a non-sterilized mineral soil (approximately 50 percent silt, 26 percent clay, and 24 percent sand, with a pH of about 7.6 and an organic matter content of about 2.9 percent) and water at a 1:1 volumetric ratio. The prepared mud was dispensed in 365 milliliter (mL) aliquots into 16-ounce (oz.) non-perforated plastic pots with a surface area of 86.59 square centimeters (cm^2) leaving a headspace of 3 centimeters (cm) in each pot. Mud was allowed to dry overnight prior to planting or transplanting. Rice seeds were planted in Sun Gro® MetroMix® 360 planting mixture, which typically has a pH of 6.0 to 6.8 and an organic matter content of about 30 percent, in plastic plug trays. Seedlings at the second or third leaf stage of growth were transplanted into 840 mL of mud contained in 32-oz. non-perforated plastic pots with a surface area of 86.59 cm^2 four days prior to herbicide application. The paddy was created by filling the headspace of the pots with 2.5 to 3 cm of water. When required to ensure good germination and healthy plants, a fungicide treatment and/or other chemical or physical treatment was applied. The plants were grown for 4-22 days (d) in a greenhouse with an approximate 14-hour (h) photoperiod which was maintained at about 29° C. during the day and 26° C. during the night. Nutrients were added as Osmocote® (19:6:12, Nitrogen:Phosphorus:Potassium (N:P:K)+minor nutrients) at 2 g per 16 oz. pot and 4 g per 32 oz. pot. Water was added on a regular basis to maintain the paddy flood, and supplemental lighting was provided with overhead metal halide 1000-Watt lamps as necessary. The plants were used for testing when they reached the second or third true leaf stage.
(§5) Triclopyr triethylammonium (as Grandstand® R, 359.5 grams acid equivalent per liter (g ae/L)); fluroxypyr methylheptyl ester (meptyl or MHE, as Starane™, 179.8 g ae/L); 2,4-dichlorophenoxyacetic acid dimethylammonium (2,4-D DMA, as Weedar® 64, 455.4 g ae/L); and penoxsulam (as Grasp® SC, 239.7 grams active ingredient per liter (g ai/L) were used. Measured amounts of formulated compounds were placed in individual 120 mL glass vials and were dissolved in 40 mL of an aqueous mixture containing 1.25% volume per volume (v/v) Agri-Dex® crop oil concentrate. Generally, multiple concentrations were tested utilizing the same stock solution. Applications were made by injecting an appropriate amount of the application solution into the aqueous layer of the paddy. Control plants were treated in the same manner with the solvent blank.
(§6) The treated plants and control plants were placed in a greenhouse as described above and water was added as needed to maintain a paddy flood. After approximately 3 weeks the condition of the test plants, compared with that of the untreated plants, was determined visually and scored on a scale of 0 to 100 percent where 0 corresponds to no injury or growth reduction and 100 corresponds to complete kill.

[4] = tested on: SCPJU = Schoenoplectus juncoides (Japanese bulrush); assay: as above
Text: as §4, §5, §6

[5] = tested on: ECHCG = Echinochloa crus-galli (barnyardgrass); assay: as above
Text: as §4, §5, §6

[6] = tested on: MOOVA = Monochoria vaginalis (monochoria); assay: as above
Text: as §4, §5, §6

[7] = Cyperus difformis, 744 h, read-out: Percent (%) Visual Injury Ratings - 31 DAA, CYPDI
[8] = Pontederia vaginalis, 744 h, read-out: Percent (%) Visual Injury Ratings - 31 DAA, MOOVA

O=C(O)COc1ccc(Cl)cc1Cl [2,4-D DMA (Weedar ® 64), dimethylammonium 2-(2,4-dichlorophenoxy)acetate]
Percent (%) Visual Injury Ratings - 16 DAA, CYPDI ([1]; 35 g ae/ha): 99%
Percent (%) Visual Injury Ratings - 22 DAA, CYPDI ([1]; 35 g ae/ha): 89%
Percent (%) Visual Injury Ratings - 16 DAA, CYPDI ([1]; 70 g ae/ha): 100%
Percent (%) Visual Injury Ratings - 22 DAA, CYPDI ([1]; 70 g ae/ha): 76%
Percent (%) Visual Injury Ratings - 16 DAA, CYPDI ([1]; 140 g ae/ha): 98%
Percent (%) Visual Injury Ratings - 22 DAA, CYPDI ([1]; 140 g ae/ha): 92%
Percent (%) Visual Injury Ratings - 16 DAA, CYPDI ([1]; 280 g ae/ha): 97%
Percent (%) Visual Injury Ratings - 22 DAA, CYPDI ([1]; 280 g ae/ha): 98%
pest or weed control at 280 g/ha [1, 7]: 100%
pest or weed control at 560 g/ha [1, 7]: 100%
pest or weed control at 1120 g/ha [1, 7]: 100%
Percent (%) Visual Injury Ratings - 16 DAA, MOOVA ([2]; 35 g ae/ha): 98%
Percent (%) Visual Injury Ratings - 22 DAA, MOOVA ([2]; 35 g ae/ha): 84%
Percent (%) Visual Injury Ratings - 16 DAA, MOOVA ([2]; 70 g ae/ha): 90%
Percent (%) Visual Injury Ratings - 22 DAA, MOOVA ([2]; 70 g ae/ha): 72%
Percent (%) Visual Injury Ratings - 16 DAA, MOOVA ([2]; 140 g ae/ha): 87%
Percent (%) Visual Injury Ratings - 22 DAA, MOOVA ([2]; 140 g ae/ha): 88%
Percent (%) Visual Injury Ratings - 16 DAA, MOOVA ([2]; 280 g ae/ha): 89%
Percent (%) Visual Injury Ratings - 22 DAA, MOOVA ([2]; 280 g ae/ha): 98%
pest or weed control at 280 g/ha [2, 8]: 100%
pest or weed control at 560 g/ha [2, 8]: 100%
pest or weed control at 1120 g/ha [2, 8]: 100%
Percent (%) Visual Injury Ratings - 20 DAA, CYDPI ([3]; 280 g ae/ha in-water): 90%
Percent (%) Visual Injury Ratings - 20 DAA, CYDPI ([3]; 560 g ae/ha in-water): 100%
Percent (%) Visual Injury Ratings - 20 DAA, CYDPI ([3]; 1120 g ae/ha in-water): 100%
Percent (%) Visual Injury Ratings - 20 DAA, SCPJU ([4]; 280 g ae/ha in-water): 70%
Percent (%) Visual Injury Ratings - 20 DAA, SCPJU ([4]; 560 g ae/ha in-water): 100%
Percent (%) Visual Injury Ratings - 20 DAA, SCPJU ([4]; 1120 g ae/ha in-water): 100%
Percent (%) Visual Injury Ratings - 20 DAA, ECHCG ([5]; 280 g ae/ha in-water): 0%
Percent (%) Visual Injury Ratings - 20 DAA, ECHCG ([5]; 560 g ae/ha in-water): 20%
Percent (%) Visual Injury Ratings - 20 DAA, ECHCG ([5]; 1120 g ae/ha in-water): 80%
Percent (%) Visual Injury Ratings - 20 DAA, MOOVA ([6]; 280 g ae/ha in-water): 90%
Percent (%) Visual Injury Ratings - 20 DAA, MOOVA ([6]; 560 g ae/ha in-water): 100%
Percent (%) Visual Injury Ratings - 20 DAA, MOOVA ([6]; 1120 g ae/ha in-water): 99%
